Where two headings read alike, the source gives them in different places.
Legend:
Type in all cases: cell-based
IKZF4 Eos = target: T1, IKZF4 Eos (Homo sapiens, UniProt Q96SW2+Q9H2S9); assay: Human Regulatory T Cell Reprogramming Assay (Eos)
T1 construct: Human CD4+ T cells were isolated from fresh healthy leukopaks; endogenous in cells; host or cells: FACS-sorted primary human regulatory T cells from healthy leukopaks
Description: (§1) Human CD4+ T cells were isolated from fresh healthy leukopaks (Stemcell Technologies) using the RosetteSep Human CD4+ T cell enrichment cocktail (Stemcell Technologies) and Ficoll density gradient centrifugation. Leukopaks were diluted with an equal volume of phosphate-buffered saline (PBS [Gibco]) supplemented with 2% fetal bovine serum (FBS, VWR Lifescience) and incubated with RosetteSep Human CD4^+ T cell enrichment cocktail for 20 minutes before layering on Ficoll-Paque Plus solution (GE Health Care). The cell-rich interface layer was harvested and washed twice with PBS supplemented with 2% FBS. Regulatory T cells were then isolated manually using the EasySep Human CD4^+CD1271WCD25^+ Regulatory T cell isolation kit (Stemcell Technologies) according to the manufacturer's instructions. Cells were rested overnight in Roswell Park Memorial Institute (RPMI) 1640 media (Gibco) supplemented with 10% FBS, Pen/Strep (Gibco), MEM-NEAA (Gibco), and sodium pyruvate (Gibco) in a humidified incubator (37° C., 5% CO2). Cells were then stained for CD4 (clone: RPA-T4, Biolegend), CD25 (clone: 2A3, BD Biosciences), and CD127 (clone: hIL-7R-M21, BD Biosciences). CD4+CD12710WCD25+ cells were sorted on a BD FACS Aria Fusion sorter to a purity of 95% or greater. Sorted cells were immediately used or cryopreserved for downstream assays.
(§2) Fresh or cryopreserved FACS-sorted CD4+CD127^lowCD25^+ Treg cells were cultured at 25,000-50,000 cells/well of 96-well round bottom plates in RPMI 1640 media (Gibco) supplemented with 10% FBS, Pen/Strep (Gibco), MEM-NEAA (Gibco), and sodium pyruvate (Gibco). Cells were stimulated with Treg Xpander beads (Thermo Fisher) at cells-to-beads ratio of 1:4 in the presence of 500 U/mL recombinant human IL-2 (Proleukin). Compounds were added at titrated doses and cells were incubated at 37° C., 5% CO2 for 12-13 days. Recombinant human IL-2 and compound were replenished every 2-3 days during the entire culture duration. On day 12 or 13, cells were restimulated with phorbol 12-myristate 13-acetate (PMA) and ionomycin in the presence of the protein transport inhibitors brefeldin A and monensin (eBioscience Cell Stimulation Cocktail plus protein transport inhibitors, 500×, Catalog number 00-4975-93) before proceeding with flow cytometry staining and analysis.
(§3) For flow cytometry staining, cells were washed twice with flow cytometry staining buffer (Thermo Fisher) and incubated in Human Tru-stain Fc block (Biolegend) for 10 minutes before adding eFluor780 viability dye (Thermo Fisher) and surface marker antibody cocktail for 30 minutes at 4° C. […] Data were analyzed using FlowJo version 10 and GraphPad Prism Software.
(§4) Table C-1 lists the maximum observed degradation of the IKZF2 protein and IKZF4 protein as measured in the Human Regulatory T Cell Reprogramming assay. […]

IKZF2 Helios [1] = target: T2, IKZF2 Helios (Homo sapiens, UniProt Q96SW2+Q9UKS7); assay: Human Regulatory T Cell Reprogramming Assay (Helios); parameters: Human CD4+ T cells were isolated from fresh healthy leukopaks; endogenous in cells; host or cells: FACS-sorted primary human regulatory T cells from healthy leukopaks
Description: as §1, §2, §3, §4

IKZF2 Helios [2] = target: T2, IKZF2 Helios; assay: Jurkat Cellular Degradation Assay (Helios); parameters: endogenous in cells; host or cells: Jurkat cells; conditions: Jurkat cells, 72 h
Description: Jurkat cells were plated at 80,000 cells/well in 40 μL RPMI+10% FBS in a 384-well cell culture plate prior to using acoustic dispensing technology for adding a compound of interest. Cell cultures were incubated for 72 h at 37° C. and 5% CO2. In order to facilitate analysis, cell cultures were spun down at 200 rpm for 5 min and the supernatant was discarded. After shaking the plate to dislodge the cell pellet, cells were resuspended in 50 μL of Fixation Buffer (eBioscience FoxP3 buffer set 00-5523-00) for 60 min at room temperature. After centrifuging and discarding the supernatant, cells were permeabilized with 50 μL of Permeabilization buffer (eBioscience FoxP3 buffer set 00-5523-00) for 10 min at room temperature. […] Stained cells were resuspended in 25 μL of flow cytometry staining buffer [PBS+0.2% bovine serum albumin (BSA)] and analyzed using an Intellicyt Ique Plus flow cytometer.
Table A-1 lists the maximum observed degradation of the IKZF1 protein, IKZF2 protein, and IKZF3 protein as measured in the Jurkat Cellular Degradation assay. […]

[3] = human Treg cells, stimulated, 12-13 days, concentration reducing protein level by 50% compared to DMSO alone

T2 sequence (Q9UKS7 whole entry): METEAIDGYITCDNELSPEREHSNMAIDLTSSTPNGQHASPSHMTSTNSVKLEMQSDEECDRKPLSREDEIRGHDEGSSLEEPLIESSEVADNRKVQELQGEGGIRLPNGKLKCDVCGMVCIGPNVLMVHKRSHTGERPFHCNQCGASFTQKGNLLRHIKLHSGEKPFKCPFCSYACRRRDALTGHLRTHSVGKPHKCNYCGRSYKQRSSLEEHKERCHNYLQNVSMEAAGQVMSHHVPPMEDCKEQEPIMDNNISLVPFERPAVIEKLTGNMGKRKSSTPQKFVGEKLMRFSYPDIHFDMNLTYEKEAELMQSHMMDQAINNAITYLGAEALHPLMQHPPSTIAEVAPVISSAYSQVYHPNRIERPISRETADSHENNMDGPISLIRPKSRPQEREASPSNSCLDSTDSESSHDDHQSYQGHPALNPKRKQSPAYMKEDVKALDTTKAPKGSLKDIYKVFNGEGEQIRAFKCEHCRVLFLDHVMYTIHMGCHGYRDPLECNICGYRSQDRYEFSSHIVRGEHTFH
T2 sequence (Q96SW2 whole entry): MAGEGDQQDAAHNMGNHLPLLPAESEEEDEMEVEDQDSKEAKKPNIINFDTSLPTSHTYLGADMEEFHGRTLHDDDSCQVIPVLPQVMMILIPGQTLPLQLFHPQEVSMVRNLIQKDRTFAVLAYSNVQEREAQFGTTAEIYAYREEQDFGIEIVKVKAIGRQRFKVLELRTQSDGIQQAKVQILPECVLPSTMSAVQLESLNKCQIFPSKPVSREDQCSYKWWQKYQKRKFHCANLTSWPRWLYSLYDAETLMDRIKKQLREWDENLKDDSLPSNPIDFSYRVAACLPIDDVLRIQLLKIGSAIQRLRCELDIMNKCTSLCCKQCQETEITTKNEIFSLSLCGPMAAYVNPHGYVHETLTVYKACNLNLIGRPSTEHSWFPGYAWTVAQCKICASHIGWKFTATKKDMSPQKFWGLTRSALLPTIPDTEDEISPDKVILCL
T2 sequence (Q16531 whole entry partner): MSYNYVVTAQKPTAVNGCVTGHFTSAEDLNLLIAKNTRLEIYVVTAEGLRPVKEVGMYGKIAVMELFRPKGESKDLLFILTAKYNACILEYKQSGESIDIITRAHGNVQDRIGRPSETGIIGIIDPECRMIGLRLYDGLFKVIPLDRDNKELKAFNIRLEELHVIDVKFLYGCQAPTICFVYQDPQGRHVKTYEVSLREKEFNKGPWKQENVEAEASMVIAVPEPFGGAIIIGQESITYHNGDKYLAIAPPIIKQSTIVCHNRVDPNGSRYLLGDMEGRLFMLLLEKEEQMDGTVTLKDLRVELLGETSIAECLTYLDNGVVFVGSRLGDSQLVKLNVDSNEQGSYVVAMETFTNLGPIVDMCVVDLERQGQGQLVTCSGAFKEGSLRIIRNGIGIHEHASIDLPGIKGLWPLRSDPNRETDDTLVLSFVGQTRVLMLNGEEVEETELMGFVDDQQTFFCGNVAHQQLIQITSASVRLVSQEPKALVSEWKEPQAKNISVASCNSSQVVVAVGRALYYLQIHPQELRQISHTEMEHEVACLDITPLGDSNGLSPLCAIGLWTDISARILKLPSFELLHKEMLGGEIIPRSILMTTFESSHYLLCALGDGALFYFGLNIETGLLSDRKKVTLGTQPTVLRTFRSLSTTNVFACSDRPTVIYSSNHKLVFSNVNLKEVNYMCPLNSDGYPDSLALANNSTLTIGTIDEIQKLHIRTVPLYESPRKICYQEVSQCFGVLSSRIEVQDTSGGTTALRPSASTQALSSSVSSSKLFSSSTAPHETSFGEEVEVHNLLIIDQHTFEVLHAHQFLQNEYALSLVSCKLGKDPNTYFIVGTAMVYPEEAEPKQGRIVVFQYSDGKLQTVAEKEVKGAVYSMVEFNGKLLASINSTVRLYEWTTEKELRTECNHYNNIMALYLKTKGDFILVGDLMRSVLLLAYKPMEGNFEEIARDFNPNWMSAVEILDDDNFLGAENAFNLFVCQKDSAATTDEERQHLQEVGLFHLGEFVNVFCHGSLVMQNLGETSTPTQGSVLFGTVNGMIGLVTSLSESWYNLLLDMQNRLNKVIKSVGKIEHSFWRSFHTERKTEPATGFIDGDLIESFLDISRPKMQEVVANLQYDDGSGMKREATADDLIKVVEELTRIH
T1 sequence (Q9H2S9 whole entry): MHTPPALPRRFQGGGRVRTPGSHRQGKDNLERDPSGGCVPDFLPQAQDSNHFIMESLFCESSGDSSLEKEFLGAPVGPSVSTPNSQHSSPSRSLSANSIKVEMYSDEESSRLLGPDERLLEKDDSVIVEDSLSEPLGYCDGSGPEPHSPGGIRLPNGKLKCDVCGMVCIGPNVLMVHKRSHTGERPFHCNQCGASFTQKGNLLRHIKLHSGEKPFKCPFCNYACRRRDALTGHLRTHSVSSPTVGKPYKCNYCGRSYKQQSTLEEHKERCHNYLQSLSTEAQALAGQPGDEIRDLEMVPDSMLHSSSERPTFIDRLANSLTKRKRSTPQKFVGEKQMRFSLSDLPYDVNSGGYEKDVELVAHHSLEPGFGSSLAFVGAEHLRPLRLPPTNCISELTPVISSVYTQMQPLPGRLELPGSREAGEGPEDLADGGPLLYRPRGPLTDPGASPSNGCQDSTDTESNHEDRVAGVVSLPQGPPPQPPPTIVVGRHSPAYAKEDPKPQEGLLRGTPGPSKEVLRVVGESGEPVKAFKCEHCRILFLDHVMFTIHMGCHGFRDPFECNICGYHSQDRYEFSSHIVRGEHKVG
T1 sequence (Q96SW2 whole entry): as the sequence (Q96SW2 whole entry) above
T1 sequence (Q16531 whole entry partner): as the sequence (Q16531 whole entry partner) above

Dmax (IKZF4 Eos; Regulatory T cell, human, text summary of Table C-1, read-out: decreased the level of IKZF4 (Eos)): ≥ 71%
Dmax (IKZF4 Eos; Regulatory T cell, human Treg cells, stimulated, 12-13 days, read-out: IKZF4 Eos Maximum Observed Degradation): 71 to 72%
DC50 (IKZF4 Eos; [3]): 1.3 to 1.6 nM
Dmax (IKZF4 Eos; summary table, Human T Regulatory Cell Reprogramming Assay (Table C-1), read-out: IKZF4 Eos max % deg. observed (Table E)): 71 to 72%
Dmax (IKZF2 Helios [1]; Regulatory T cell, human, text summary of Table C-1, read-out: decreased the level of the IKZF2 (Helios) protein): ≥ 81%
Dmax (IKZF2 Helios [1]; Regulatory T cell, human Treg cells, stimulated, 12-13 days, read-out: IKZF2 Helios Maximum Observed Degradation): 81 to 86%
DC50 (IKZF2 Helios [1]; [3]): 36 to 172 nM
Dmax (IKZF2 Helios [1]; summary table, Human T Regulatory Cell Reprogramming Assay (Table C-1), read-out: IKZF2 Helios max % deg. observed (Table E)): 81 to 86%
DC50 (IKZF2 Helios [2]; concentration reducing protein level by 50% compared to DMSO alone): 4.4 nM
Dmax (IKZF2 Helios [2]; human, read-out: IKZF2 Helios max % deg. observed): 92%
SMILES: Nc1nc(-c2ccc3c(c2F)CN(C2CCC(=O)NC2=O)C3=O)ccc1CN1CC(C2CCC(F)(F)CC2)C1 (stereo not shown) [Example 1, 3-(5-(6-Amino-5-((3-(4,4-difluorocyclohexyl)azetidin-1-yl)methyl)pyridin-2-yl)-4-fluoro-1-oxoisoindolin-2-yl) piperidine-2,6-dione]

From US20260335299A1, “SUBSTITUTED OXOISOINDOLINYL PIPERIDINE-2,6-DIONE COMPOUND AS ANTICANCER AGENT” (BRISTOL-MYERS SQUIBB COMPANY, priority 2023, published 2026)
